From PubChem BioAssay AID1996
Converted amounts (≈) assume the structure as drawn.

Settings: buffer; pH 7.4; 200.0 µM
With `O=C(NCc1nc(-c2ccc(C(F)(F)F)cc2)no1)c1cccs1` the solubility kinetic was 7.1 µg/mL (≈ 20.1 µM). For `CCOc1ccc2[nH]c3c(NCCc4ccc(OC)c(OC)c4)ncnc3c2c1`, the solubility kinetic was 5.9 µg/mL (≈ 15 µM). In the case of `O=C(/C=C/c1cccc(Cl)c1)NCCCN1CCOCC1`, the solubility kinetic is reported as greater than 46.3 µg/mL. Molecule `O=C(COC(=O)CNC(=O)c1ccccc1F)Nc1ccc(Cl)cn1` has a solubility kinetic of 22.2 µg/mL (≈ 60.7 µM). Molecule `COc1cccc(CNC(=O)CCSCc2ccccc2F)c1` has a solubility kinetic of 41.8 µg/mL (≈ 125 µM). `COC(=O)c1cc(Cl)nc2ccccc12` gave a solubility kinetic of 7.9 µg/mL (≈ 35.6 µM). In the case of `CC(C)Oc1ccc(/C=C/C(=O)NCC2COc3ccccc3O2)cc1` (stereo not drawn), the solubility kinetic is reported as 2.8 µg/mL (≈ 7.92 µM). `CC1=C(C(=O)OC2CCCC(C)C2)C(c2ccccc2)NC(=O)N1` (stereo not drawn) showed a solubility kinetic of 4.3 µg/mL (≈ 13.1 µM). With `CC(=O)Nc1cccc(NC(=S)Nc2cccc(Cl)c2Cl)c1` the solubility kinetic was 26 µg/mL (≈ 73.4 µM). In the case of `CCc1c(C)c2ccc(O)c(CN3CCCC3)c2oc1=O`, the solubility kinetic is reported as 41.6 µg/mL (≈ 145 µM). `CC1(C)C2CCC1(C)C(NC(=O)/C=C/c1ccccc1)C2` (stereo not drawn) showed a solubility kinetic of 8.9 µg/mL (≈ 31.4 µM). In the case of `O=C(CCc1ccccc1)Nc1cc2c(cc1C(=O)O)OCCCO2`, the solubility kinetic is reported as greater than 51.2 µg/mL. `O=C(CCNC(=O)c1ccc(Br)cc1)Nc1ccc(S(=O)(=O)N2CCOCC2)cc1` gave a solubility kinetic of 5.3 µg/mL (≈ 10.7 µM). `O=[n+]1cc(-c2ccc(Cl)cc2)n([O-])c2c1CCC2` showed a solubility kinetic greater than 39.4 µg/mL. `O=C1NN=C(c2ccccc2)CC1c1c[nH]c2ccccc12` (stereo not drawn) gave a solubility kinetic greater than 43.4 µg/mL. For `Cc1nc(Oc2ccccc2)c2ccsc2n1`, the solubility kinetic was 20 µg/mL (≈ 82.5 µM). In the case of `O=S(=O)(c1ccc(F)cc1)N1CC=C(c2ccccc2)CC1`, the solubility kinetic is reported as 2.6 µg/mL (≈ 8.19 µM). Work on `CCC(=O)c1cn(CC(=O)Nc2ccc(C)cc2)c2ccccc12` yielded a solubility kinetic of less than 0.3 µg/mL. In the case of `O=C(COC(=O)/C=C/c1ccc(F)cc1)NCc1ccco1`, the solubility kinetic is reported as 5.1 µg/mL (≈ 16.8 µM). Molecule `CC(NC(=O)COC(=O)C12CC3CC(CC(O)(C3)C1)C2)c1ccccc1` (stereo not drawn) has a solubility kinetic greater than 53.6 µg/mL. Molecule `COc1cc(C(=O)Nc2ccc(C(=O)O)cc2)ccc1OC(C)=O` has a solubility kinetic greater than 49.4 µg/mL. `C=CCn1cc(C=C2C(=O)NC(=O)NC2=O)c2ccccc21` gave a solubility kinetic of 3.6 µg/mL (≈ 12.2 µM). With `CC(=O)Nc1c(-c2ccc3ccccc3c2)nc2ccccn12` the solubility kinetic was 10.7 µg/mL (≈ 35.5 µM). Work on `Cc1[nH]c2ccc(C(=O)NC3CCCC3)cc2c1C` yielded a solubility kinetic greater than 38.5 µg/mL. For `COc1cccc(C2NC(=O)CCC2[N+](=O)[O-])c1` (stereo not drawn), the solubility kinetic was greater than 37.5 µg/mL. Molecule `Cc1ccc(S(=O)(=O)Nc2cccc(C(=O)NCC(c3ccc(F)cc3)N3CCOCC3)c2)cc1` (stereo not drawn) has a solubility kinetic of 58.2 µg/mL (≈ 117 µM). For `O=C(Nc1ccon1)c1ccc(Br)s1`, the solubility kinetic was 5.5 µg/mL (≈ 20.1 µM). Work on `O=S1(=O)CC(O)C(NCCO)C1` (stereo not drawn) yielded a solubility kinetic greater than 29.3 µg/mL. For `CCOC(=O)N1CCN(C(=O)/C=C/c2ccc(OC)c(OC)c2)CC1`, the solubility kinetic was 51.5 µg/mL (≈ 148 µM). With `C[N+]1(C)CCc2cc3c(cc2[C@H]1[C@@H]1OC(=O)c2c1ccc1c2OCO1)OCO3.[I-]` the solubility kinetic was greater than 76.4 µg/mL. `Cc1cccc(C)c1NC(=O)C[n+]1cc(-c2ccccc2)n2c1CCC2.[Cl-]` gave a solubility kinetic greater than 57.3 µg/mL. `C(=N\Nc1nc2ccccc2[nH]1)/C1CCCCC1` gave a solubility kinetic greater than 36.3 µg/mL. For `Cc1ccc(NS(=O)(=O)c2cc(C(=O)N(C)C3CCN(C)CC3)ccc2Cl)cc1Cl.O=C(O)C(=O)O`, the solubility kinetic was greater than 84.1 µg/mL. Work on `O=C(Nc1cccc2c1CCCC2)c1cccc(F)c1` yielded a solubility kinetic of less than 0.6 µg/mL. With `O=C(NCc1ccccc1)C(=O)Nc1nccs1` the solubility kinetic was 3.1 µg/mL (≈ 11.9 µM). For `O=C(O)CSCc1nc2scc(-c3ccccc3)c2c(=O)[nH]1`, the solubility kinetic was greater than 49.9 µg/mL. `COc1ccc(NC(=O)CN(C)C(=O)CC2CCCCC2)cc1` showed a solubility kinetic greater than 47.8 µg/mL. In the case of `CCc1cccc(C)c1NC(=S)NCC1CCN(c2ccc(OC)cc2)C1` (stereo not drawn), the solubility kinetic is reported as 2.7 µg/mL (≈ 7.04 µM). In the case of `CCOc1ccc(OCCSc2nc(N)cc(=O)[nH]2)cc1`, the solubility kinetic is reported as 4.1 µg/mL (≈ 13.3 µM). In the case of `O=C(CSc1ncccn1)N1CCCc2ccccc21`, the solubility kinetic is reported as greater than 42.8 µg/mL. In the case of `CCOC(=O)c1ccccc1NC(=O)CSc1nncn1C`, the solubility kinetic is reported as greater than 48.1 µg/mL. `CCc1ccc(S(=O)(=O)NC2CC(C)(C)NC(C)(C)C2)cc1` gave a solubility kinetic of 35.8 µg/mL (≈ 110 µM). For `CCN=C(NCC)SC1CC(=O)N(CCc2ccccc2)C1=O` (stereo not drawn), the solubility kinetic was 36.3 µg/mL (≈ 109 µM). With `O=[N+]([O-])c1cccc(CN2CCC(Cc3ccccc3)CC2)c1` the solubility kinetic was 17.3 µg/mL (≈ 55.7 µM). For `CCOC(=O)c1cc(-c2csc(COc3ccccc3Cl)n2)on1`, the solubility kinetic was less than 0.4 µg/mL. Work on `COC(=O)CSc1nc(NC#N)nc(NC(C)(C)C)n1` yielded a solubility kinetic of 36.7 µg/mL (≈ 124 µM). With `Cc1cc(NC(=O)NC(=O)c2ccccc2)no1` the solubility kinetic was 2.8 µg/mL (≈ 11.4 µM). For `COC(=O)c1c(-c2ccccc2)c[nH]c1C`, the solubility kinetic was 32 µg/mL (≈ 149 µM). In the case of `CC1(C)Cc2ccccc2C(CSc2ccccc2C(=O)O)=N1`, the solubility kinetic is reported as 43.1 µg/mL (≈ 132 µM). Molecule `Cc1ccc(S(=O)(=O)n2c(N)nc3ccccc32)cc1` has a solubility kinetic of 2.7 µg/mL (≈ 9.4 µM). Molecule `CC1(c2ccc(OCC(N)=O)cc2)NC(=O)NC1=O` (stereo not drawn) has a solubility kinetic of 35.7 µg/mL (≈ 136 µM). With `C#CCNC(=O)c1ccc(OCc2ccccc2)cc1Cl` the solubility kinetic was 41.7 µg/mL (≈ 139 µM). Molecule `O=C(CSc1nc(-c2ccccc2)ns1)N1CCOCC1` has a solubility kinetic of 1 µg/mL (≈ 3.11 µM). `O=C(CC12CC3CC(CC(C3)C1)C2)NC1CC1` showed a solubility kinetic of 30 µg/mL (≈ 129 µM). With `Cc1ccc(C(C)NC(=S)NCc2ccc(F)cc2)cc1C` (stereo not drawn) the solubility kinetic was 6.2 µg/mL (≈ 19.6 µM). With `CCN1CCN(C(=O)C(Cc2ccccc2)NC(=O)c2ccc(Cl)c(S(=O)(=O)N(C)C)c2)CC1` (stereo not drawn) the solubility kinetic was greater than 76.1 µg/mL. With `CCOc1ccccc1Nc1ccc2nonc2c1[N+](=O)[O-]` the solubility kinetic was less than 0.2 µg/mL. Molecule `O=C(Nc1cccnc1N1CCOCC1)c1cccs1` has a solubility kinetic greater than 43.4 µg/mL.
